From patent US12435092B2, “Substituted imidazo[1,2-A]quinazolines as inhibitors of PARG” (858 Therapeutics, Inc., priority 2022, dated 2025)

molecular target: T1, cellular PARG (Homo sapiens, UniProt Q86W56); assay: Nuclear PAR accumulation assay (immunofluorescence high-content imaging); type: cell-based; conditions: HeLa cells, 1 hour compound treatment then MMS 50 μg/mL for an additional hour
T1 construct: endogenous in cells; host or cells: HeLa
How it was run: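 HeLa cells pretreated 1 h at 37 °C with compound, then 1 h with 50 μg/mL MMS (final), methanol-fixed and immunostained for PAR with DAPI nuclear counterstain. Nuclear PAR intensity and percent PAR-positive cells quantified by high-content imaging (≥1,000 cells/well). IC50 by four-parameter logistic fit, normalized to 0.1% DMSO and reference-compound controls.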

T1 sequence (Q86W56 whole entry): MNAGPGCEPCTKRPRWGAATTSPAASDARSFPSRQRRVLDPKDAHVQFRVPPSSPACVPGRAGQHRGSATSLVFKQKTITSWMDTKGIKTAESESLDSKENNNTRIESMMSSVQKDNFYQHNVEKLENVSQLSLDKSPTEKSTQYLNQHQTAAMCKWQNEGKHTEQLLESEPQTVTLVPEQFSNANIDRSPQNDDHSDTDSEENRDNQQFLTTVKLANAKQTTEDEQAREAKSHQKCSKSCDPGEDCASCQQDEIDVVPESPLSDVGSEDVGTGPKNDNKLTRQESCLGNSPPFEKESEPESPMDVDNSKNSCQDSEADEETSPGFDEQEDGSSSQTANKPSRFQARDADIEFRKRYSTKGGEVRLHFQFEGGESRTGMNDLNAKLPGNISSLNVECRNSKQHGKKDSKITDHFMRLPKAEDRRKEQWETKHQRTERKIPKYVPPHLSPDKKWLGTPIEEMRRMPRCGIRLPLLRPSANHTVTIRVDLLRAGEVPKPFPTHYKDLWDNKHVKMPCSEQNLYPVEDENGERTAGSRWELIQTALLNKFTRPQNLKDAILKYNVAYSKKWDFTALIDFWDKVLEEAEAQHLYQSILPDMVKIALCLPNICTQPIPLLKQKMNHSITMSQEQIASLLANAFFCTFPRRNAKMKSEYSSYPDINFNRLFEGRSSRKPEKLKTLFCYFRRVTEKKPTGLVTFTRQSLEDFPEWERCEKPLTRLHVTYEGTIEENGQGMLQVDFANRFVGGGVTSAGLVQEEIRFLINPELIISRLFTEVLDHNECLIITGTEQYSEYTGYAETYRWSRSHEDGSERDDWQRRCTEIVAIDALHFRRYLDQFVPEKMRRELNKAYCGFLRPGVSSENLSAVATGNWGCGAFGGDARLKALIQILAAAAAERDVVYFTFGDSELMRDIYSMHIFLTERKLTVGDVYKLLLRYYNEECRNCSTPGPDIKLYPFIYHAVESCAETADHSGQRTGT

Structure (SMILES)	IC50 [nM]
Cn1cc(CN2C(=O)c3cc(S(=O)(=O)NC4(C)CC4)ccc3N3CC(C)(C)N=C23)cn1 [Example 64, 2,2-dimethyl-4-((1-methyl-1H-pyrazol-4-yl)methyl)-N-(1-methylcyclopropyl)-5-oxo-1,2,4,5-tetrahydroimidazo[1,2-a]quinazoline-7-sulfonamide]	≤ 100
Cn1cc(CN2C(=O)c3cc(S(=O)(=O)NC4(C)CC4)ccc3N3C2=NC[C@H]3C(F)(F)F)cn1 [Example 65, (S)-1-trifluoromethyl-4-((1-methyl-1H-pyrazol-4-yl)methyl)-N-(1-methylcyclopropyl)-5-oxo-1,2,4,5-tetrahydroimidazo[1,2-a]quinazoline-7-sulfonamide]	≤ 100
C[C@@H]1CN=C2N(Cc3cnn(CC#N)c3)C(=O)c3cc(S(=O)(=O)NC4(C)CC4)ccc3N21 [Example 66, (R)-1-methyl-4-((1-cyanomethyl-1H-pyrazol-4-yl)methyl)-N-(1-methylcyclopropyl)-5-oxo-1,2,4,5-tetrahydroimidazo[1,2-a]quinazoline-7-sulfonamide]	≤ 100
Cc1noc(C)c1CN1C(=O)c2cc(S(=O)(=O)NC3(C)CC3)ccc2N2C1=NC[C@H]2C(C)C [Example 67, (R)-4-((3,5-dimethylisoxazol-4-yl)methyl)-1-isopropyl-N-(1-methylcyclopropyl)-5-oxo-1,2,4,5-tetrahydroimidazo[1,2-a]quinazoline-7-sulfonamide]	≤ 100
Cc1noc(C)c1CN1C(=O)c2cc(S(=O)(=O)NC3(C)CC3)ccc2N2C1=NC[C@@H]2C(C)C [Example 68, (S)-4-((3,5-dimethylisoxazol-4-yl)methyl)-1-isopropyl-N-(1-methylcyclopropyl)-5-oxo-1,2,4,5-tetrahydroimidazo[1,2-a]quinazoline-7-sulfonamide]	1000 to 10000
Cc1noc(C)c1CN1C(=O)c2cc(S(=O)(=O)NC3(C)CC3)ccc2N2C1=NC[C@H]2C1CC1 [Example 69, (R)-1-cyclopropyl-4-((3,5-dimethylisoxazol-4-yl)methyl)-N-(1-methylcyclopropyl)-5-oxo-1,2,4,5-tetrahydroimidazo[1,2-a]quinazoline-7-sulfonamide]	≤ 100
Cc1noc(C)c1CN1C(=O)c2cc(S(=O)(=O)NC3(C)CC3)ccc2N2C1=NC[C@@H]2C1CC1 [Example 70, (S)-1-cyclopropyl-4-((3,5-dimethylisoxazol-4-yl)methyl)-N-(1-methylcyclopropyl)-5-oxo-1,2,4,5-tetrahydroimidazo[1,2-a]quinazoline-7-sulfonamide]	100 to 1000
C#C[C@@H]1CN=C2N(Cc3c(C)noc3C)C(=O)c3cc(S(=O)(=O)NC4(C)CC4)ccc3N21 [Example 71, (R)-4-((3,5-dimethylisoxazol-4-yl)methyl)-1-ethynyl-N-(1-methylcyclopropyl)-5-oxo-1,2,4,5-tetrahydroimidazo[1,2-a]quinazoline-7-sulfonamide]	≤ 100
C#C[C@H]1CN=C2N(Cc3c(C)noc3C)C(=O)c3cc(S(=O)(=O)NC4(C)CC4)ccc3N21 [Example 72, (S)-4-((3,5-dimethylisoxazol-4-yl)methyl)-1-ethynyl-N-(1-methylcyclopropyl)-5-oxo-1,2,4,5-tetrahydroimidazo[1,2-a]quinazoline-7-sulfonamide]	≤ 100
Cc1nc(C)c(CN2C(=O)c3cc(S(=O)(=O)NC4(C)CC4)ccc3N3C2=NC[C@H]3C)s1 [Example 73, (R)-4-((2,4-dimethylthiazol-5-yl)methyl)-1-methyl-N-(1-methylcyclopropyl)-5-oxo-1,2,4,5-tetrahydroimidazo[1,2-a]quinazoline-7-sulfonamide]	≤ 100
C[C@@H]1CN=C2N(Cc3cnn(C)c3)C(=O)c3cc(S(=O)(=O)NC4(C)CC4)c(F)cc3N21 [Example 74, (R)-8-fluoro-1-methyl-4-((1-methyl-1H-pyrazol-4-yl)methyl)-N-(1-methylcyclopropyl)-5-oxo-1,2,4,5-tetrahydroimidazo[1,2-a]quinazoline-7-sulfonamide]	≤ 100
C[C@H]1CCN=C2N(Cc3cnn(C)c3)C(=O)c3cc(S(=O)(=O)NC4(C)CC4)ccc3N21 [Example 75, (S)-1-methyl-5-((1-methyl-1H-pyrazol-4-yl)methyl)-N-(1-methylcyclopropyl)-6-oxo-2,3,5,6-tetrahydro-1H-pyrimido[1,2-a]quinazoline-8-sulfonamide]	≤ 100
C[C@@H]1CCN=C2N(Cc3cnn(C)c3)C(=O)c3cc(S(=O)(=O)NC4(C)CC4)ccc3N21 [Example 76, (R)-1-methyl-5-((1-methyl-1H-pyrazol-4-yl)methyl)-N-(1-methylcyclopropyl)-6-oxo-2,3,5,6-tetrahydro-1H-pyrimido[1,2-a]quinazoline-8-sulfonamide]	≤ 100
COC[C@@H]1CN=C2N(Cc3cnn(C)c3)C(=O)c3cc(S(=O)(=O)NC4(C)CC4)ccc3N21 [Example 77, (S)-1-(methoxymethyl)-4-((1-methyl-1H-pyrazol-4-yl)methyl)-N-(1-methylcyclopropyl)-5-oxo-1,2,4,5-tetrahydroimidazo[1,2-a]quinazoline-7-sulfonamide]	≤ 100
COC[C@H]1CN=C2N(Cc3cnn(C)c3)C(=O)c3cc(S(=O)(=O)NC4(C)CC4)ccc3N21 [Example 78, (R)-1-(methoxymethyl)-4-((1-methyl-1H-pyrazol-4-yl)methyl)-N-(1-methylcyclopropyl)-5-oxo-1,2,4,5-tetrahydroimidazo[1,2-a]quinazoline-7-sulfonamide]	100 to 1000
Cn1cc(CN2C(=O)c3cc(S(=O)(=O)NC4(C)CC4)ccc3N3C2=N[C@H]2CCC[C@H]23)cn1 [Example 79, (7aS,10aR)-6-((1-methyl-1H-pyrazol-4-yl)methyl)-N-(1-methylcyclopropyl)-5-oxo-6,7a,8,9,10,10a-hexahydro-5H-cyclopenta[4,5]imidazo[1,2-a]quinazoline-3-sulfonamide]	≤ 100
Cc1nn(C)cc1CN1C(=O)c2cc(S(=O)(=O)NC3(C)CC3)ccc2N2C1=NC[C@H]2C [Example 80, (R)-4-((1,3-dimethyl-1H-pyrazol-4-yl)methyl)-1-methyl-N-(1-methylcyclopropyl)-5-oxo-1,2,4,5-tetrahydroimidazo[1,2-a]quinazoline-7-sulfonamide]	≤ 100
Cc1c(CN2C(=O)c3cc(S(=O)(=O)NC4(C)CC4)ccc3N3C2=NC[C@H]3C)cnn1C [Example 81, (R)-4-((1,5-dimethyl-1H-pyrazol-4-yl)methyl)-1-methyl-N-(1-methylcyclopropyl)-5-oxo-1,2,4,5-tetrahydroimidazo[1,2-a]quinazoline-7-sulfonamide]	≤ 100
Cc1nc(C)c([C@@H]2CN=C3N(CC4CC4)C(=O)c4cc(S(=O)(=O)NC5(C)CC5)ccc4N32)s1 [Example 82, (S)-4-(cyclopropylmethyl)-1-(2,4-dimethylthiazol-5-yl)-N-(1-methylcyclopropyl)-5-oxo-1,2,4,5-tetrahydroimidazo[1,2-a]quinazoline-7-sulfonamide]	100 to 1000
Cn1cc(CN2C(=O)c3cc(S(=O)(=O)NC4(C)CC4)ccc3N3C2=NC[C@H]3C#CC2CC2)cn1 [Example 83, (R)-1-(cyclopropylethynyl)-4-((1-methyl-1H-pyrazol-4-yl)methyl)-N-(1-methylcyclopropyl)-5-oxo-1,2,4,5-tetrahydroimidazo[1,2-a]quinazoline-7-sulfonamide]	≤ 100
Cn1cc(CN2C(=O)c3cc(S(=O)(=O)NC4(C)CC4)ccc3N3C2=NC[C@@H]3C#CC2CC2)cn1 [Example 84, (S)-1-(cyclopropylethynyl)-4-((1-methyl-1H-pyrazol-4-yl)methyl)-N-(1-methylcyclopropyl)-5-oxo-1,2,4,5-tetrahydroimidazo[1,2-a]quinazoline-7-sulfonamide]	1000 to 10000
[2H]C([2H])(c1cnn(C)c1)N1C(=O)c2cc(S(=O)(=O)NC3(C)CC3)ccc2N2C1=N[C@H]1CCC[C@H]12 [Example 85, (7aS,10aR)-6-(dideutero(1-methyl-1H-pyrazol-4-yl)methyl)-N-(1-methylcyclopropyl)-5-oxo-6,7a,8,9,10,10a-hexahydro-5H-cyclopenta[4,5]imidazo[1,2-a]quinazoline-3-sulfonamide]	≤ 100
[2H]C([2H])(c1cnn(C)c1)N1C(=O)c2cc(S(=O)(=O)NC3(C)CC3)c(F)cc2N2C1=NC[C@H]2C [Example 86, (R)-4-(dideutero(1-methyl-1H-pyrazol-4-yl)methyl)-8-fluoro-1-methyl-N-(1-methylcyclopropyl)-5-oxo-1,2,4,5-tetrahydroimidazo[1,2-a]quinazoline-7-sulfonamide]	≤ 100
[2H]C([2H])(c1cnn(C)c1)N1C(=O)c2cc(S(=O)(=O)NC3(C)CC3)ccc2N2C1=NC[C@H]2C(F)(F)F [Example 87, (S)-4-(dideutero(1-methyl-1H-pyrazol-4-yl)methyl)-N-(1-methylcyclopropyl)-5-oxo-1-(trifluoromethyl)-1,2,4,5-tetrahydroimidazo[1,2-a]quinazoline-7-sulfonamide]	≤ 100
[2H]C([2H])(c1cnn(C)c1)N1C(=O)c2cc(S(=O)(=O)NC3(C#N)CC3)ccc2N2C1=N[C@H]1CCC[C@H]12 [Example 88, (7aS,10aR)-N-(1-cyanocyclopropyl)-6-(dideutero(1-methyl-1H-pyrazol-4-yl)methyl)-5-oxo-6,7a,8,9,10,10a-hexahydro-5H-cyclopenta[4,5]imidazo[1,2-a]quinazoline-3-sulfonamide]	≤ 100
[2H]C([2H])(c1sc(C)nc1C)N1C(=O)c2cc(S(=O)(=O)NC3(C)CC3)ccc2N2C1=NC[C@H]2C [Example 89, (R)-4-(dideutero(2,4-dimethylthiazol-5-yl)methyl)-1-methyl-N-(1-methylcyclopropyl)-5-oxo-1,2,4,5-tetrahydroimidazo[1,2-a]quinazoline-7-sulfonamide]	≤ 100
C[C@@H]1CN=C2N(Cc3cn(C)nn3)C(=O)c3cc(S(=O)(=O)NC4(C)CC4)ccc3N21 [Example 90, (R)-1-methyl-4-((1-methyl-1H-1,2,3-triazol-4-yl)methyl)-N-(1-methylcyclopropyl)-5-oxo-1,2,4,5-tetrahydroimidazo[1,2-a]quinazoline-7-sulfonamide]	100 to 1000
